According to PMC9000710, “Synthesis and Hemostatic Activity of New Amide Derivatives” (Molecules, 2022):
“Also recorded” adds a separate entry of the source. Where a name gives a salt, the structure may show the parent alone. Where a SMILES comes first, the peptide text is derived from it.

Assays:
human blood plasma [1] = assay: Thrombin time (TT) clotting assay; type: biochemical
Description: (§1) Human blood plasma was isolated from fresh buffy coats (collected onto the citrate-dextrose solution—ACD) purchased from the Regional Centre of Blood Donation and Blood Treatment in Lodz, Poland. In the isolation procedure, the buffy coats (60 mL units) were divided into volumes of 10 mL and centrifuged (4000 rpm/15 min) in 15 mL tubes. Next, 1 mL solutions of each amide 1–8 were prepared in distilled water at concentrations of 10, 25, and 50 mg/L. Then, 450 μL of plasma and 50 μL of each amide at the tested concentrations were placed into 1.5 mL vials. The vials were vortexed (Vortex Biosan V-1 plus), incubated at 37 °C on a thermoblock (Dry Block Thermostat Biosan TDB-120), and analyzed using a Kselmed K-3002 OPTIC coagulometer (Grudziądz, Poland), based on the manufacturer’s protocols (described below). The control sample was native blood plasma, untreated with any of the examined substances.
Both 100 μL of control plasma and plasma samples treated with the amides were transferred to measuring cuvettes, which were placed in the thermoblock module (37 °C) of the coagulometer (KSELMED K-3002 Optic). Then, 100 μL of thrombin solution (4.5 U/mL, in 0.9% NaCl; Biomed, Lublin, Poland) was added to the cuvette. Measurements were started immediately.

human blood plasma [2] = assay: Activated partial thromboplastin time (aPTT) clotting assay; type: biochemical; details: for aPTT, effect versus control in words: tested at 10, 25, 50 mg/L
Description: as §1
Fifty microliters of control plasma and plasma samples treated with the amides were transferred to measuring cuvettes and placed in the thermoblock module (37 °C) of the coagulometer (KSELMED, K-3002 Optic). Then, 50 μL of Dia-APTT reagent (DIAGON Kft. Hungary; cat. no. 72048) was added. The mixture was incubated for 180 s at 37 °C. Finally, 50 μL of reagent Dia-CaCl2 (DIAGON Kft. Hungary; cat. no. 41192) was added. Measurements were started immediately.

human blood plasma [3] = assay: Prothrombin time (PT) clotting assay; type: biochemical
Description: as §1
Fifty microliters of control plasma and plasma samples treated with the amides were transferred to measuring cuvettes and placed in the thermoblock module (37 °C) of a coagulometer (KSELMED, K-3002 Optic). Then, 100 μL of Dia-PT reagent (DIAGON Kft. Hungary; cat. no. 81100) was added. Measurements were started immediately.

[4] = Hemolysis assay (stability of erythrocytes); type: cell-based, human; details: male, human, heparinized whole blood diluted with saline (erythrocytes)
Description: Heparinized whole blood was used from a healthy volunteer. The whole blood (10 mL) was diluted with saline solution (90 mL). For each UV-Vis measurement, 2.5 mL of diluted blood was used. For each blood sample, 1 mL of a saline solution containing hydrochlorides 1–8 at concentrations of 5, 50, and 500 mg/L was added. As a control were used blood samples with the addition of 1% solution of DMSO in saline and 1% solution of SDS in saline. In all cases, the measurements were repeated twice for each concentration. […] The cells were centrifuged, and the absorbance of the supernatant, which contained plasma and lysed erythrocytes, was measured at 540 nm. The percentage of lysis was calculated from a standard curve of lysed erythrocytes treated with SDS [52].

human blood plasma [5] = assay: Clot formation and fibrinolysis (CFF) assay; type: biochemical; details: for Amax (maximum of fibrin clot absorbance at 360 nm) / VmaxC (of Fibrin Polymerization) / VmaxF (of Fibrin Clot Lysis): control plasma assumed as 100%, mean ± SD, n = 5–7; for effect on fibrin polymerization (VmaxC) in words: tested at 10, 25, 50 mg/L
Text: The CFF assay enables analysis of both the blood plasma coagulation process and fibrinolysis efficiency. The thrombin enzyme in the reagent mixture initiates blood plasma fibrinogen polymerization, leading to an increase in absorbance in the sample until the maximal absorbance (Amax) is attained. The fibrinolytic activity of blood plasma is induced by the tissue-type plasminogen activator (t-PA). The activation of fibrinolysis in the tested samples leads to fibrin clot degradation and decreases the absorbance to the baseline.
Figure 11 An exemplary curve of blood plasma coagulation and clot lysis recorded during the clot formation and fibrinolysis (CFF) assay. The first step in the CFF test involves activation of the blood plasma coagulation cascade and fibrin clot formation (1). It is characterized by the maximal velocity of the fibrin polymerization parameter (VmaxC). The maximal absorbance (Amax) peak corresponds to the fibrin stabilization phase and is an indicator of fibrin clot thickness (2). The third step of the CFF assay covers the activation of fibrinolytic mechanisms and fibrin clot degradation (3) and is described by the maximal velocity of clot lysis (VmaxF).
Thrombin was purchased from BioMed (Lublin, Poland). A tissue-type plasminogen activator (Actilyse®) was purchased from Boehringer Ingelheim, Ingelheim am Rhein, Germany. Kinetic measurements were executed using a SpectrostarNano microplate spectrophotometer (BMG LabTech, Ortenberg, Germany).
Measurements were performed using a kinetic model, as described in our previous work. Briefly, blood plasma was preincubated with the examined substances (at final concentrations of 10, 25, and 50 mg/L) for 15 min at 37 °C. Then, 100 μL of blood plasma was added to microtiter plate wells, which was followed by 200 μL of the reagent mixture (0.75 U/mL thrombin, 225 ng/mL t-PA and 7.5 mM CaCl2) suspended in tris-buffered saline (0.05 M TBS, 0.9% NaCl; pH 7.4). Measurements of absorbance changes were started immediately and continued for 60 min at 37 °C, λ = 360 nm. The following parameters were used to determine the effects of the examined substances on the coagulation and fibrinolytic properties of the blood plasma: the maximal velocity of fibrinogen polymerization (VmaxC), which is an indicator of the plasma coagulation efficiency; the maximal absorbance (Amax), which is an indicator of the fibrin clot stabilization and its thickness; the maximal velocity of clot lysis (VmaxF), which is an indicator of blood plasma fibrinolytic activity.

[6] = two lower concentrations (10 and 25 mg/L)

Compound | TT Time [% of Control] (human blood plasma [1]; c 10 mg/L) | TT Time [% of Control] (human blood plasma [1]; c 25 mg/L) | TT Time [% of Control] (human blood plasma [1]; c 50 mg/L) | aPTT Time [% of Control] (human blood plasma [2]; c 10 mg/L) | aPTT Time [% of Control] (human blood plasma [2]; c 25 mg/L) | aPTT Time [% of Control] (human blood plasma [2]; c 50 mg/L) | aPTT, effect versus control in words (human blood plasma [2]) | PT Time [% of Control] (human blood plasma [3]; c 10 mg/L) | PT Time [% of Control] (human blood plasma [3]; c 25 mg/L) | PT Time [% of Control] (human blood plasma [3]; c 50 mg/L) | prothrombin time, effect versus control in words (human blood plasma [3]; [6]) | Amax (maximum of fibrin clot absorbance at 360 nm) (human blood plasma [5]; 10 mg/L) [%] | VmaxC (of Fibrin Polymerization) (human blood plasma [5]; 10 mg/L) [%] | VmaxF (of Fibrin Clot Lysis) (human blood plasma [5]; 10 mg/L) | Amax (maximum of fibrin clot absorbance at 360 nm) (human blood plasma [5]; 25 mg/L) [%] | VmaxC (of Fibrin Polymerization) (human blood plasma [5]; 25 mg/L) [%] | VmaxF (of Fibrin Clot Lysis) (human blood plasma [5]; 25 mg/L) | Amax (maximum of fibrin clot absorbance at 360 nm) (human blood plasma [5]; 50 mg/L) [%] | VmaxC (of Fibrin Polymerization) (human blood plasma [5]; 50 mg/L) [%] | VmaxF (of Fibrin Clot Lysis) (human blood plasma [5]; 50 mg/L) | also measured
NCCCCCC(=O)NCC1CCC(C(=O)O)CC1 (centres unmarked) [Amide 3, 6-((((1s,4s)-4-Carboxycyclohexyl)methyl)amino)-6-oxohexan-1-aminium chloride] | 100.1 ± 2.6 % of Control | 100.8 ± 6.9 % of Control | 97.2 ± 4.3 % of Control | 94.8 ± 4.5 % of Control | 94.7 ± 4.1 % of Control | 96.3 ± 2.8 % of Control | significantly decreased | 94.9 ± 2.2 % of Control | 95.2 ± 3.0 % of Control | 97.0 ± 3.6 % of Control | decreased | 107.21 ± 6.90 | 105.61 ± 7.06 | 93.23 ± 16.83% | 104.49 ± 9.80 | 103.88 ± 9.73 | 97.05 ± 24.39% | 112.98 ± 8.40 | 109.78 ± 6.46 | 102.82 ± 20.01% | hemolysis at 45 min, 5 mg/L ([4]; c 5 mg/L, 45 min): 0.44%; hemolysis at 120 min, 5 mg/L ([4]; c 5 mg/L, 120 min): 0.74%; hemolysis at 240 min, 5 mg/L ([4]; c 5 mg/L, 240 min): 0.41%; hemolysis at 45 min, 50 mg/L ([4]; c 50 mg/L, 45 min): 0%; hemolysis at 120 min, 50 mg/L ([4]; c 50 mg/L, 120 min): 0%; hemolysis at 240 min, 50 mg/L ([4]; c 50 mg/L, 240 min): 0.26%; hemolysis at 45 min, 500 mg/L ([4]; c 500 mg/L, 45 min): 0.47%; hemolysis at 120 min, 500 mg/L ([4]; c 500 mg/L, 120 min): 0.65%; hemolysis at 240 min, 500 mg/L ([4]; c 500 mg/L, 240 min): 0.23%
NCC(=O)NCC(=O)O [Amide 5, Glycylglycine hydrochloride] (H-Gly-Gly-OH) | 99.1 ± 6.1 % of Control | 99.0 ± 4.7 % of Control | 97.8 ± 3.3 % of Control | 98.8 ± 5.8 % of Control | 101.1 ± 4.9 % of Control | 100.8 ± 2.6 % of Control |  | 95.0 ± 10.5 % of Control | 92.0 ± 8.5 % of Control | 93.0 ± 8.3 % of Control |  | 106.44 ± 1.78 | 105.80 ± 2.97 | 90.08 ± 13.68% | 107.12 ± 4.65 | 105.88 ± 3.76 | 85.12 ± 16.98 % | 113.43 ± 7.86 | 109.83 ± 1.46 | 89.46 ± 10.48 % | procoagulant activity judged from VmaxC and Amax, in words (human blood plasma [5]; among the tested compounds): most evident procoagulant activity; Amax parameter, effect in words (human blood plasma [5]; full range of tested concentrations (10–50 µg/mL)): significantly higher; effect on fibrin polymerization (VmaxC) in words (human blood plasma [5]): Mild pro-coagulant effects
NC[C@H]1CC[C@H](C(=O)O)CC1 [TA, trans-4-(aminomethyl)cyclohexane carboxylic acid, reference compound] |  |  |  |  |  |  | significantly decreased |  |  |  | decreased | 106.67 ± 3.79 | 101.38 ± 7.89 | total inhibition | 105.87 ± 6.23 | 104.75 ± 9.98 | total inhibition | 106.64 ± 4.65 | 104.85 ± 12.06 | total inhibition | TT, effect versus control in words (human blood plasma [1]; all used concentrations (10, 25, 50 mg/L)): no effects; aPTT, effect versus control in words (human blood plasma [2]; listed as tranexamic acid): slightly shortened; prothrombin time, effect versus control in words (human blood plasma [3]; concentration not specified (10, 25, 50 mg/L tested), listed as tranexamic acid): slightly shortened; also recorded: slightly but statistically significantly reduced; effect on fibrin polymerization (VmaxC) in words (human blood plasma [5]): did not influence
